For data set [1] the following is noted: cited from earlier work.
A further data set has as its system CD3+ΔCD19+ cells. The experiment in a line: CASPALLO phase 1 clinical trial, AP1903 in patients with GvHD after iCasp9+ T cells. It counts as in vivo, human. The settings on record: after AP1903 administration. The source says: Three patients received iCasp9+ T cells after haplo-CD34^+ stem cell transplantation (SCT), at dose levels between about 1×10^6 to about 3×10^6 cells/kg.

The target in data set [2] is chimeric Caspase-9 polypeptide (Homo sapiens, UniProt P62942, F37V). The settings on record: cited from earlier work.
Data set [3] concerns iCasp9M.IRES.GFPhigh-transduced CTLs. The data set can be described thus: SCID mouse-human xenograft model, human CD3+/GFP+ T cells in tumors. It counts as in vivo, NOD/SCID mice. As to conditions: single dose of CID (50 μg AP20187 i.p.) vs carrier; tumors 3 days after. On the procedure:
Non-obese diabetic severe combined immunodeficient (NOD/SCID) mice, 6 to 8 weeks of age, were irradiated (250 rad) and injected subcutaneously in the right flank with 10×10^6 to 15×10^6 LCLs resuspended in Matrigel (BD Bioscience). Two weeks later mice bearing tumors that were approximately 0.5 cm in diameter were injected into the tail vein with a 1:1 mixture of nontransduced and iCasp9.I.GFPhigh-transduced EBV CTLs (total 15×10^6). At 4 to 6 hours prior and 3 days after CTL infusion, mice were injected intraperitoneally with recombinant hIL-2 (2000 U; Proleukin; Chiron). On day 4, the mice were randomly segregated in 2 groups: 1 group received CID (50 μg AP20187, intraperitoneally) and 1 group received carrier only (16.7% propanediol, 22.5% PEG400, and 1.25% Tween 80, intraperitoneally). […] By FACS analysis, the number of GFP+ cells within the gated CD3^+ population was evaluated. […]
The function of iCasp9M in vivo, is graphically illustrated in FIG. 7. […] On day 3 after CTL administration, mice received either CID (50 μg AP20187; (black diamonds, n=6) or carrier only (black squares, n=5) and on day 6 the presence of human CD3+/GFP+ T cells in the tumors was analyzed. Human CD3+ T cells isolated from the tumors of a control group of mice that received only nontransduced CTLs (15×10^6 CTLs; n=4) were used as a negative control for the analysis of CD3+/GFP+ T cells within the tumors.
On the technique in general: A xenograft is tissue or cells of one species grown in another, often human tumour cells in immunodeficient mice.

For data set [4], the system named is gene-modified allodepleted cells. The experiment in a line: Induction of apoptosis with AP20187 in gene-modified allodepleted cells (annexin V/7-AAD). It is filed as cell-based, human. As for the experimental part:
(§1) Suicide gene functionality was assessed by adding a small molecule synthetic homodimerizer, AP20187 (Ariad Pharmaceuticals; Cambridge, Mass.), at 10 nM final concentration the day following CD19 immunomagnetic selection. Cells were stained with annexin V and 7-amino-actinomycin (7-AAD)(BD Pharmingen) at 24 hours and analyzed by flow cytometry. Cells negative for both Annexin V and 7-AAD were considered viable, cells that were annexin V positive were apoptotic, and cells that were both annexin V and 7-AAD positive were necrotic. The percentage killing induced by dimerization was corrected for baseline viability as follows: Percentage killing=100%−(% Viability in AP20187-treated cells÷% Viability in non-treated cells).
Cells were maintained in T cell medium containing 50 U/ml IL-2 until 22 days after transduction. A portion of cells was reactivated on 24-well plates coated with […] OKT3 and 1 μg/ml anti-CD28 (Clone CD28.2, BD Pharmingen, San Jose, Calif.) for 48 to 72 hours. CD19 expression and suicide gene function in both reactivated and non-reactivated cells were measured on day 24 or 25 post transduction.

A further data set concerns iCasp9-transduced MSCs. The data set can be described thus: Apoptosis studies in vitro, undifferentiated MSCs (annexin V-PE/7-AAD). It is filed as cell-based, human. As to conditions: magnetically immunoselected iCasp9-CD19-positive cells after exposure to CID. As for the experimental part: Undifferentiated MSCs. The chemical inducer of dimerization (CID) (AP20187; ARIAD Pharmaceuticals, Cambridge, Mass.) was added at 50 nM to iCasp9-transduced MSCs cultures in complete medium. Apoptosis was evaluated 24 hours later by FACS analysis, after cell harvest and staining with annexin V-PE and 7-AAD in annexin V binding buffer (BD Biosciences, San Diego, Calif.). Control iCasp9-transduced MSCs were maintained in culture without exposure to CID.

The test system of the next data set is non-transduced cells. The data set can be described thus: Viability of non-transduced cells with AP20187. It is filed as cell-based, human. The settings on record: non-transduced cells (n=6). As for the experimental part: as §1
For data set [5], the system named is iCasp9-ΔCD19-transduced MSCs. The experiment in a line: In vivo killing of MSCs in SCID mouse model (qPCR). Set-up: species or system SCID mice. A general note: Quantitative PCR measures a nucleic acid by following its amplification.
In a further data set the test system is HEK293T/16 cells. The data set can be described thus: Secreted alkaline phosphatase (SEAP) reporter-based surrogate killing assay. It counts as cell-based, human. As to conditions: for relative SEAP activity Units (basal activity): no AP1903, higher SEAP = lower basal activity; for basal signaling: compared to iCasp9 WT; for cost of higher IC50 to AP1903: versus unmodified iCasp9. As for the experimental part: FIG. 45 provides an analysis of SEAP assays. To examine both basal signaling and AP1903-induced activity, 10^6 early-passage HEK293T/16 cells were co-transfected with various amounts of plasmids expressing Caspase-9 mutants along with 500 ng of SEAP reporter plasmid, used as a surrogate marker for cell viability. […] of the mixture was seeded onto each well of a 96-well plate. […] For the assay, 4-MUP was hydrolyzed by SEAP to 4-methylumbelliferon, a metabolite that can be excited at 364 nm and detected at an emission of 448 nm. Because SEAP is used as a marker for cell viability, reduced SEAP readings correspond with increased iCaspase-9 activities.
Early passage HEK293T/16 (ATCC, Manassas, Va.) was maintained in IMDM, GlutaMAX™ (Life Technologies, Carlsbad, Calif.) supplemented with 10% FBS, 100 U/mL penicillin, and 100 U/mL streptomycin until transfection in a humidified, 37° C., 5% CO2/95% air atmosphere. Cells in logarithmic-phase growth were transiently transfected with 800 ng to 2 μg of expression plasmid encoding iCasp9 mutants and 500 ng of an expression plasmid encoding SRα promoter driven SEAP per million cells in 15-mL conical tubes. […] GeneJammer® Transfection Reagent at a ratio of 3 μl per ug of plasmid DNA was used to transiently transfect HEK293T/16 in the absence of antibiotics. 100 μl or 2 mL of the transfection mixture was added to each well in 96-well or 6-well plate, respectively.
Briefly, after 65° C. heat denaturation for 45 minutes to reduce background caused by endogenous (and serum-derived) alkaline phosphatases that are sensitive to heat, 5 μl of supernatants was added to 95 μl of PBS and added to 100 μl of substrate buffer, containing 1 μl of 100 mM 4-methylumbelliferyl phosphate (4-MUP; Sigma, St. Louis, Mo.) re-suspended in 2 M diethanolamine. Hydrolysis of 4-MUP by SEAP produces a fluorescent […] with excitation/emission (355/460 nm), which can be easily measured. Assays were performed in black opaque 96-well plates to minimize fluorescence leakage between wells (FIG. 45).

The mark [6] stands for this setting: 10 nM, 24 hours, day after immunomagnetic selection.

Like-named read-outs stand apart in the source and are kept apart here.

Sequence of chimeric Caspase-9 polypeptide (P62942 2-108 F37V limits assumed): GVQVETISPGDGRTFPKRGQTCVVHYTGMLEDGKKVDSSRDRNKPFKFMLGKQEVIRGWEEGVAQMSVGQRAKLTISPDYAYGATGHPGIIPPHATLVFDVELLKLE

For `CC[C@H](C(=O)N1CCCC[C@H]1C(=O)O[C@H](CCc1ccc(OC)c(OC)c1)c1cccc(OCC(=O)NCCNC(=O)COc2cccc([C@@H](CCc3ccc(OC)c(OC)c3)OC(=O)[C@@H]3CCCCN3C(=O)[C@@H](CC)c3cc(OC)c(OC)c(OC)c3)c2)c1)c1cc(OC)c(OC)c(OC)c1` (relative stereo) [AP1903, 2-Piperidinecarboxylic acid, 1-[(2S)-1-oxo-2-(3,4,5-trimethoxyphenyl)butyl]-, 1,2-ethanediylbis[imino(2-oxo-2,1-ethanediyl)oxy-3,1-phenylene[(1R)-3-(3,4-dimethoxyphenyl)propylidene]] ester, [2S-[1(R*),2R*[S*[S*[1(R*),2R*]]]]]-(9CI)], the “safety / adverse effects in Phase I study” value in data set [1] (0.01 mg/kg to 1.0 mg/kg dose range, healthy volunteers, listed as API903) was “No serious adverse events”. Besides, the “plasma levels, % of maximal concentration” value in [1] (2 hours post-dose) was ~7%; in data set [1] (10 hours post-dose), ~1%. In addition, in data set [1] (Phase I study), the Doses well-tolerated entry was “up to 1 mg/kg”. Also, the “resolution of skin and liver aGvHD” value with CD3+ΔCD19+ cells was ≤ 24 h. Besides, the “amount of AP1903 needed in vitro for effective signaling of cells” value in [2] was 10 to 100 nM.
For `CC[C@H](C(=O)N1CCCC[C@H]1C(=O)O[C@H](CCc1ccc(OC)c(OC)c1)c1cccc(OCC(=O)NCC(CNC(=O)COc2cccc([C@@H](CCc3ccc(OC)c(OC)c3)OC(=O)[C@@H]3CCCCN3C(=O)[C@@H](CC)c3cc(OC)c(OC)c(OC)c3)c2)CN(C)C)c1)c1cc(OC)c(OC)c(OC)c1` [AP20187], the “reduction in the number of human CD3+/GFP+ T cells” value in [3] is on record as > 99%. In [4] (setting [6]), the “AP20187-treated cells remained viable” value is reported as “about 5.5%” and the “Killing efficiency after correction for baseline viability” value is listed as “about 92.9%”. Besides, the killing efficiency entry in data set [4] (reactivated, CD25 positive cells) is “about 93%”. Also, the “selected cells become apoptotic” value with iCasp9-transduced MSCs is on record as “More than 95%”. For the same molecule, in the data set with non-transduced cells, the “viability with AP20187” value is reported as “about 86%”. Further, the “proportion of surviving iCasp9-positive cells, % of the original population” value in [5] was 0.7%.

B1: N405Q: chimeric modified Caspase-9 polypeptide, SEQ ID NO: 26 (protein)
chain: GFGDVGALESLRGNADLAYILSMEPCGHCLIINNVNFCRESGLRTRTGSNIDCEKLRRRFSSLHFMVEVKGDLTAKKMVLALLELARQDHGALDCCVVVILSHGCQASHLQFPGAVYGTDGCPVSVEKIVNIFNGTSCPSLGGKPKLFFIQACGGEQKDHGFEVASTSPEDESPGSNPEPDATPFQEGLRTFDQLDAISSLPTPSDIFVSYSTFPGFVSWRDPKSGSWYVETLDDIFEQWAHSEDLQSLLLRVANAVSVKGIYKQMPGCFQFLRKKLFFKTS
B1: the “relative SEAP activity Units (basal activity)” value (“relative SEAP activity Units” for short) with HEK293T/16 cells (1 μg iCasp9 per million cells) is 179081 relative SEAP activity Units; with HEK293T/16 cells (2 μg iCasp9 per million cells), 175529 relative SEAP activity Units. For the same molecule, in the data set on HEK293T/16 cells, the basal signaling result was “lower basal signaling”. Besides, the “cost of higher IC50 to AP1903” value in the data set with HEK293T/16 cells is < 10 fold.

B2: D330A-N405Q: chimeric modified Caspase-9 polypeptide, double mutant, SEQ ID NO: 28 (protein)
chain: GFGDVGALESLRGNADLAYILSMEPCGHCLIINNVNFCRESGLRTRTGSNIDCEKLRRRFSSLHFMVEVKGDLTAKKMVLALLELARQDHGALDCCVVVILSHGCQASHLQFPGAVYGTDGCPVSVEKIVNIFNGTSCPSLGGKPKLFFIQACGGEQKDHGFEVASTSPEDESPGSNPEPDATPFQEGLRTFDQLAAISSLPTPSDIFVSYSTFPGFVSWRDPKSGSWYVETLDDIFEQWAHSEDLQSLLLRVANAVSVKGIYKQMPGCFQFLRKKLFFKTS
Consider B2, for which the “relative SEAP activity Units” value was 205772 relative SEAP activity Units in the data set on HEK293T/16 cells (1 μg iCasp9 per million cells) and 174366 relative SEAP activity Units in the data set with HEK293T/16 cells (2 μg iCasp9 per million cells). The basal signaling entry in the data set on HEK293T/16 cells is “lower basal signaling”.

B3: D330A: chimeric modified Caspase-9 polypeptide, SEQ ID NO: 24 (protein)
chain: GFGDVGALESLRGNADLAYILSMEPCGHCLIINNVNFCRESGLRTRTGSNIDCEKLRRRFSSLHFMVEVKGDLTAKKMVLALLELARQDHGALDCCVVVILSHGCQASHLQFPGAVYGTDGCPVSVEKIVNIFNGTSCPSLGGKPKLFFIQACGGEQKDHGFEVASTSPEDESPGSNPEPDATPFQEGLRTFDQLAAISSLPTPSDIFVSYSTFPGFVSWRDPKSGSWYVETLDDIFEQWAHSEDLQSLLLRVANAVSVKGIYKQMPGCFNFLRKKLFFKTS
B3: the “relative SEAP activity Units” value in the data set on HEK293T/16 cells (1 μg iCasp9 per million cells) was 148928 relative SEAP activity Units. Moreover, the “relative SEAP activity Units” value with HEK293T/16 cells (2 μg iCasp9 per million cells) is on record as 136863 relative SEAP activity Units. In addition, in the data set on HEK293T/16 cells, the basal signaling entry is “lower basal signaling” and the “cost of higher IC50 to AP1903” value is < 5 fold.
